{"source": "patent US11965038B2", "about": "“Pharmaceutical composition comprising antibody binding specifically to lysyl-tRNA synthetase N-terminus as effective ingredient for preventing or treating immune cell migration-related disease” (Zymedi Co., Ltd., priority 2017, dated 2024)", "key": {"[1]": {"system": "RAW 264.7 cells", "experiment": "Transwell migration assay with extracellular matrix proteins and laminin subtypes", "type": "cell-based", "procedure": "In the extracellular matrix (ECM) that make up the blood vessels, it was identified which promotes the migration and invasion of monocytes/macrophages. Transwell migration assay was performed using collagen (collagen, Col), fibronectin (FN) and laminin (LN) as extracellular matrix. The specific experimental method is as follows. After transwells (Corning, #3421-5 mm) were coated with gelatin (0.5 mg/ml), RAW 264.7 cells (1×10^5 cells/well) were seeded into the top chamber. Fibronectin or Collagen was placed in the bottom chamber. Serum Free DMEM (500 μl) containing 10 μg/ml of Laminin (laminin mixture, Biolamina), Fibronectin or Collagen, respectively, was placed in the bottom chamber. After 24 hours, the cells were treated with 70% methanol for 30 minutes and fixed, and then stained with 50% Hematoxylin for 30 minutes. After removing non-migrating cells from the top of the membrane with a cotton swab, the membrane was taken and mounted on the slide. The migrating cells on the underside of the membrane were observed and quantified under a high magnification microscope.\nThe effects of laminin subtypes on immune cell migration and invasion were evaluated. A transwell cell migration assay was performed in the same manner as in the Example 1 using LN111, LN211, LN221, LN411, LN421, LN511, and LN521 at 1 μg/ml as various laminin subtype proteins (purchased from Biolamina). […]"}, "[2]": {"system": "KRS", "experiment": "Western blotting of KRS in cytosol and membrane fractions after LN421 treatment", "type": "cell-based", "settings": "1 μg/ml LN421, 0 h, 12 h, 24 h", "procedure": "After seeding RAW 264.7 cells (2×10^6 cells) in 100 pie plate and incubating for 18 hr, the serum free-DMEM media was treated with 1 μg/ml LN421 and the cells were harvested at 0 h, 12 h, and 24 h. RAW 264.7 cell proteins were separated into cytosol and membrane fractions using the ProteoExtract® Subcellular Proteome Extraction Kit (Calbiotech, cat #539790). The obtained protein was subjected to electrophoresis, transferred to PVDF membrane (Millipore) and blocked with 3% skim milk. KRS was then detected by the western blotting. Specifically, KRS polyclonal antibody (rabbit, Neomics, Co. Ltd. #NMS-01-0005) was added to bind for 1 hour. Unbound antibody was removed and then anti-rabbit secondary antibody (Thermo Fisher Scientific, #31460) was added. After reacting with the secondary antibody, the film was developed in the dark room using ECL reagent as a substrate. The detected bands were compared to standard molecular markers to identify the bands corresponding to the size of the KRS. Antibodies against Na+/K+ATPase (Abcam, ab76020) and tubulin (Santa cruz SC-5286) were used to identify plasma membrane and cytosol markers, respectively."}, "[3]": {"system": "pulmonary arterial hypertension (PAH) models", "experiment": "Echocardiography in MCT-induced PAH model", "type": "in vivo, SD rats", "settings": "PAH rats, MCT alone: three animals", "text": "(§1) To induce PAH in 7-week-old SD rats (Oriental Bio), 60 mpk of MCT (monocrotaline) were subcutaneously injected."}, "[4]": {"experiment": "Body weight change in MCT-induced PAH model", "type": "in vivo, SD rats", "settings": "sildenafil 25 mpk, n = 5", "text": "as §1"}, "[5]": {"system": "migration and invasion of immune cells", "settings": "ear skin wound models, liver ischemia-reperfusion injury models; from Korean applications 10-2017-0076718 and 10-2018-0069146; cited from earlier work"}}}
{"compound": "laminin", "values": [{"measurement": "migration of monocytes/macrophages", "setting": "[1]; collagen, fibronectin or laminin mixture 10 μg/ml in bottom chamber, 24 hours", "result": "most strongly promotes"}]}
{"compound": "LN421: laminin subtype α4β2γ1, purchased from Biolamina", "values": [{"measurement": "migration of monocytes/macrophages by laminin subtype", "setting": "[1]; laminin subtypes at 1 μg/ml", "result": "specifically move in response"}, {"measurement": "amount of KRS detected in the cell membrane region", "setting": "[2]", "result": "increased"}]}
{"compound": "CCCc1nn(C)c2c(=O)[nH]c(-c3cc(S(=O)(=O)N4CCN(C)CC4)ccc3OCC)nc12", "note": "[Sildenafil, sildenafil]", "values": [{"measurement": "D-shaped left ventricle finding indicating pressure overload in the right ventricle", "setting": "[3]", "result": "three animals"}, {"measurement": "Relative change (weight)", "setting": "[4]; MCT + Mock IgG 48.8 ± 7.8", "result": "49.8 ± 10.5", "unit": "%"}, {"measurement": "Absolute change (weight)", "setting": "[4]; MCT + Mock IgG 101.4 ± 14.2", "result": "104.1 ± 26.4", "unit": "g"}]}
{"compound": "COc1ccc(CCN(Cc2ccc(C(=O)O)cc2)c2nc3cccc(F)c3s2)cc1", "note": "[BC-KI-00053, 4-({(7-fluorobenzo [d]thiazol-2-yl) [2-(4-methoxyphenyl)ethyl]amino}methyl) benzoic acid]", "values": [{"measurement": "migration and invasion of immune cells", "setting": "[5]", "result": "inhibited"}]}
